Common to all, as to experiment: ≥ marks a high value that may be exact or a test limit, other limits are often not marked, values filed in µg/mL are converted to µM
The subject of test [1] is Bacillus subtilis ATCC 6633.
Test [2] concerns Escherichia coli ATCC 25922.
Test [3] deals with Klebsiella pneumoniae ATCC 10031.
In test [4] the test system is Micrococcus luteus ATCC 10240.
For test [5], the system named is Pseudomonas aeruginosa ATCC 27853.
The test system of test [6] is Salmonella enterica subsp. enterica serovar Typhimurium ATCC 14028.
The test system of test [7] is Shigella dysenteriae ATCC 9752.
Test [8] relates to Staphylococcus aureus ATCC 6538P.
Test [9] has as its system Staphylococcus epidermidis ATCC 12228.
The test system of test [10] is Erwinia amylovora PMV 6076.
In test [11] the test system is Pseudomonas syringae pv. syringae EPS 94.
Test [12] concerns Xanthomonas campestris pv. Vesicatoria 2133-2.
Test [13] concerns Clavibacter michiganensis subsp. michiganensis DSM 46294.
For test [14], the system named is Pectobacterium carotovorum subsp. carotovorum DSM 30168.
In test [15] the test system is Pseudomonas corrugata DSM 7228.
Test [16] has as its system Pseudomonas syringae pv. syringae DSM 10604.
Test [17] has as its system Pseudomonas syringae pv. tomato DC3000.
Test [18] relates to Xanthomonas vesicatoria DSM 50861.
For test [19], the system named is Escherichia coli K12 MG1655.
Test [20] concerns Mycobacterium tuberculosis H37Rv.
In test [21] the test system is Pseudomonas aeruginosa PAO1.
The test system of test [22] is Salmonella enterica serovar Typhimurium.
Test [23] deals with Staphylococcus aureus ATCC 25923.

Values after ≈ are worked out from the molar mass of the structure shown.

In general, MIC refers to the lowest concentration that inhibits growth of the organism. Consider `CC(C)C[C@H](NC(=O)[C@H](Cc1c[nH]c2ccccc12)NC(=O)CNC(=O)[C@H](CC(C)C)NC(=O)[C@@H](N)Cc1ccccc1)C(=O)N[C@@H](Cc1ccccc1)C(=O)N[C@@H](CCCCN)C(=O)N[C@@H](Cc1c[nH]c2ccccc12)C(=O)N[C@@H](C)C(=O)N[C@@H](Cc1c[nH]c2ccccc12)C(=O)N[C@@H](CCCCN)C(N)=O` [FLGWLFKWAWK], for which the MIC is 4.25 µM (≈ 6.3 µg/mL) in test [1]; 16.9 µM (≈ 25 µg/mL) in test [2]; 8.44 µM (≈ 12.5 µg/mL) in [3]; 2.09 µM (≈ 3.1 µg/mL) in test [4]; over 135 µM in test [5]; 67.5 µM (≈ 99.9 µg/mL) in test [6]. Besides, the MIC in test [7] stood at 8.44 µM (≈ 12.5 µg/mL); in test [8], 4.25 µM (≈ 6.3 µg/mL); in test [9], 4.25 µM (≈ 6.3 µg/mL).

Regarding `CC(C)C[C@H](NC(=O)[C@H](CCC(=O)O)NC(=O)[C@H](CC(=O)O)NC(=O)[C@H](CCCCN)NC(=O)[C@H](CC(C)C)NC(=O)[C@H](Cc1cnc[nH]1)NC(=O)[C@H](CCC(=O)O)NC(=O)[C@H](Cc1c[nH]c2ccccc12)NC(=O)[C@H](CC(=O)O)NC(=O)[C@H](CCCCN)NC(=O)[C@H](CC(C)C)NC(=O)[C@H](Cc1cnc[nH]1)NC(=O)[C@H](CCC(=O)O)NC(=O)[C@H](Cc1c[nH]c2ccccc12)NC(=O)[C@H](CC(=O)O)NC(=O)[C@H](CCCCN)NC(=O)[C@H](CC(C)C)NC(=O)[C@H](Cc1cnc[nH]1)NC(=O)[C@H](CCC(=O)O)NC(=O)[C@H](Cc1c[nH]c2ccccc12)NC(=O)[C@H](CC(=O)O)NC(=O)[C@@H](N)CCCCN)C(=O)O` [KDWEHLKDWEHLKDWEHLKDEL], the MIC in [10], in test [11] and in test [12] was at least 100 µM throughout.

On to `CC[C@H](C)[C@H](NC(=O)[C@H](CCCCN)NC(=O)[C@H](CCCCN)NC(=O)[C@H](Cc1ccccc1)NC(=O)[C@H](CC(C)C)NC(=O)[C@H](CCCCN)NC(=O)[C@@H](N)CCCCN)C(=O)N[C@@H](CC(C)C)C(=O)N[C@@H](CCCCN)C(=O)N[C@@H](Cc1ccc(O)cc1)C(=O)N[C@@H](CC(C)C)C(=O)N[C@@H](C)C(=O)NCC(=O)N1CCC[C@H]1C(=O)N[C@@H](C)C(=O)N[C@@H](CCCCN)C(=O)N[C@@H](Cc1ccccc1)C(=O)N[C@@H](CC(C)C)C(=O)N[C@@H](Cc1cnc[nH]1)C(=O)N[C@@H](CO)C(=O)N[C@@H](C)C(=O)N[C@@H](CCCCN)C(=O)O` [KKLFKKILKYLAGPAKFLHSAK], for which the MIC came to 3.54 µM (≈ 8.95 µg/mL) in test [10], 1.77 µM (≈ 4.47 µg/mL) in [11] and 3.54 µM (≈ 8.95 µg/mL) in test [12].

Regarding `CC[C@H](C)[C@H](NC(=O)[C@H](CCCCN)NC(=O)[C@H](CCCCN)NC(=O)[C@H](Cc1ccccc1)NC(=O)[C@H](CC(C)C)NC(=O)[C@H](CCCCN)NC(=O)[C@@H](N)CCCCN)C(=O)N[C@@H](CC(C)C)C(=O)N[C@@H](CCCCN)C(=O)N[C@@H](Cc1ccc(O)cc1)C(=O)N[C@@H](CC(C)C)C(=O)N[C@@H](CCCCN)C(=O)N[C@@H](Cc1ccccc1)C(=O)N[C@@H](CC(C)C)C(=O)N[C@@H](Cc1cnc[nH]1)C(=O)N[C@@H](CO)C(=O)N[C@@H](C)C(=O)N[C@@H](CCCCN)C(=O)N[C@@H](CCCCN)C(=O)N[C@@H](CC(=O)O)C(=O)N[C@@H](CCC(=O)O)C(=O)N[C@@H](CC(C)C)C(=O)O` [KKLFKKILKYLKFLHSAKKDEL], the results for the MIC in test [10], in test [11] and in test [12] were 3.54 µM (≈ 9.61 µg/mL), 1.77 µM (≈ 4.81 µg/mL) and 1.77 µM (≈ 4.81 µg/mL), respectively.

On to `CC[C@H](C)[C@H](NC(=O)[C@H](C)NC(=O)[C@H](CC(C)C)NC(=O)[C@H](CCCN=C(N)N)NC(=O)[C@H](CC(C)C)NC(=O)[C@@H](NC(=O)[C@H](CCCN=C(N)N)NC(=O)[C@H](CC(C)C)NC(=O)[C@@H](NC(=O)[C@H](CC(C)C)NC(=O)[C@H](CCCN=C(N)N)NC(=O)[C@H](CCCN=C(N)N)NC(=O)[C@@H](N)CCCCN)[C@@H](C)CC)[C@@H](C)CC)C(=O)N[C@@H](CCCN=C(N)N)C(=O)N[C@H](C(=O)N[C@@H](CC(C)C)C(=O)N[C@H](C(=O)N[C@@H](CCCCN)C(=O)N[C@@H](CCCCN)C(=O)N[C@@H](CCCN=C(N)N)C(N)=O)C(C)C)[C@@H](C)CC` [KRRLILRILRLAIRILVKKR], for which the MIC in [13] is 0.989 µM (≈ 2.5 µg/mL); in [14], 3.96 µM (≈ 10 µg/mL); in test [15], 3.96 µM (≈ 10 µg/mL); in test [16], 3.96 µM (≈ 10 µg/mL); in test [17], 3.96 µM (≈ 10 µg/mL); in [18] it was 0.989 µM (≈ 2.5 µg/mL).

On to `CC(C)C[C@H](NC(=O)[C@H](CCCCN)NC(=O)[C@@H](N)CCCN=C(N)N)C(=O)N[C@@H](C)C(=O)N[C@@H](Cc1ccccc1)C(=O)N[C@@H](CCCCN)C(=O)N1CCC[C@H]1C(=O)N[C@@H](CC(C)C)C(=O)N[C@@H](CCCCN)C(=O)N[C@@H](CCCCN)C(=O)N[C@@H](Cc1ccccc1)C(=O)N[C@@H](Cc1ccccc1)C(=O)N[C@@H](CO)C(=O)N[C@@H](Cc1c[nH]c2ccccc12)C(=O)N[C@@H](CCCCN)C(=O)N[C@@H](CO)C(=O)O` [RKLAFKPLKKFFSWKS], for which the MIC in [19] came to 7.95 µM (≈ 16 µg/mL).

In turn, `C[C@H](NC(=O)[C@@H]1CCCN1C(=O)[C@H](CCC(=O)O)NC(=O)[C@H](CCC(N)=O)NC(=O)[C@H](CCCCN)NC(=O)[C@@H]1CCCN1C(=O)[C@H](C)NC(=O)[C@@H]1CCCN1C(=O)[C@H](CCCCN)NC(=O)[C@@H]1CCCN1C(=O)[C@H](CCCCN)NC(=O)[C@@H](NC(=O)[C@@H](NC(=O)[C@H](CCCN=C(N)N)NC(=O)[C@@H]1CCCN1C(=O)[C@H](CCCCN)NC(=O)[C@@H](N)CCCN=C(N)N)[C@@H](C)O)[C@@H](C)O)C(=O)N[C@H](C(=O)N[C@@H](CCC(=O)O)C(=O)N[C@@H](CCC(=O)O)C(=O)O)[C@@H](C)O` [RKPRTTKPKPAPKQEPATEE] yielded an MIC in [20] of at least 87.4 µM.

As for `CC[C@H](C)[C@H](NC(=O)[C@@H](NC(=O)[C@H](CS)NC(=O)[C@@H](NC(=O)[C@H](CCCN=C(N)N)NC(=O)[C@H](CS)NC(=O)[C@H](CCCN=C(N)N)NC(=O)[C@H](CC(C)C)NC(=O)[C@H](CCC(N)=O)NC(=O)[C@@H](N)C(C)C)C(C)C)C(C)C)C(=O)N[C@@H](CCCN=C(N)N)C(=O)N[C@@H](CCCCN)C(=O)O` [VQLRCRVCVIRK], the MIC in test [2] came out at 21.7 µM (≈ 32 µg/mL); in [21], 43.5 µM (≈ 64 µg/mL); in [22] it was 21.7 µM (≈ 32 µg/mL); in test [23], 43.5 µM (≈ 64 µg/mL).

These data come from DBAASP.
